Reference: paper PMC11423540, “Synthesis and biological evaluation of ortho-phenyl phenylhydroxamic acids containing phenothiazine with improved selectivity for class IIa histone deacetylases” (Journal of Enzyme Inhibition and Medicinal Chemistry, 2024)
Where two headings read alike, the source gives them in different places.

Assays:
HeLa nuclear HDACs [1] = assay: HDAC inhibition assay, HeLa nuclear extract (mixture of class I HDACs 1, 2, and 3); details: read-out: IC50 HeLa nuclear HDACs, Boc-Lys-(AMC) substrate
HeLa nuclear HDACs [2] = system: HeLa nuclear HDACs; parameters: method as in PMID 33845233; details: introduction, earlier work; read-out: IC50 class I HDACs; cited from earlier work
SCM-1 cells = assay: Cell viability (MTT) assay, SCM-1; format: cell-based; details: human gastric cancer cells, read-out: IC50 of cytotoxicity SCM-1
Source text: (§1) Human breast cancer MDA-MB-231 cells and gastric cancer SCM-1 cells were purchased from the American Type Culture Collection (Manasas, VA, USA). SCC2095 human oral cancer cells were kindly provided by Professor Susan R. Mallery (The Ohio State University). Normal human lung fibroblasts (NHLFs; CC-2512) were purchased from the Lonza (Walkersville, MD, USA). SCM-1 cells were maintained in RPMI-1640 medium (Invitrogen, Carlsbad, CA, USA); MDA-MB-231 and SCC2095 cells were maintained in DMEM/F12 (Invitrogen); and NHLFs were maintained in FGM™-2 medium (Lonza) with 2% serum, supplemented with 10% heat-inactivated foetal bovine serum (FBS; Gibco, Grand Island, NY, USA). All cells were cultured at 37 °C in a humidified incubator containing 5% CO2 and 95% relative humidity.
(§2) To assess cell viability, cells were seeded in three replicates into 96-well plates at a density of 5×10^3/well for 24 h following incubation with compounds at the indicated concentrations. Then, cell viability was assessed with 3–(4,5-dimethylthiazol-2-yl)-2,5-diphenyltetrazolium bromide (MTT) solution (0.5 mg/mL) for 4h as described previously. After removing the medium, 200 µL of DMSO was added, and then the absorbance was measured at 570 nm using a plate reader (BMG LABTECH, Germany).

HDAC8 = target: T1, HDAC8 (Homo sapiens, UniProt Q9BY41); parameters: method as in PMID 33570940; details: cited from earlier work
T1 sequence (Q9BY41 1-377): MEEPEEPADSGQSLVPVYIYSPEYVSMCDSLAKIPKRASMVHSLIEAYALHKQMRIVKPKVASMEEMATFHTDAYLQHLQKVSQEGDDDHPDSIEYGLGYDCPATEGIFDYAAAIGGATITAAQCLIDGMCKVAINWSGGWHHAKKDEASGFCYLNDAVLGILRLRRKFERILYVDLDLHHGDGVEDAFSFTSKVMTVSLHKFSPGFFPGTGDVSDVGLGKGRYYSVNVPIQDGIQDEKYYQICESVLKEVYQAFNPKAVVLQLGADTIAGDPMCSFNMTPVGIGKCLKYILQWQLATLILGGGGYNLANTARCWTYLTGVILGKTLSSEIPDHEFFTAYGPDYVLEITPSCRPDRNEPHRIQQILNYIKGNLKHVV

MDA-MB-231 cells = assay: Cell viability (MTT) assay, MDA-MB-231; format: cell-based; details: human breast cancer cells, read-out: IC50 of cytotoxicity MDA-MB-231
Source text: as §1, §2

NC(=O)c1ccc2c(c1)N(Cc1ccc(C(=O)NO)cc1)c1ccccc1S2 [LH4f, reference compound]
IC50 (HeLa nuclear HDACs [1]): 100 ± 20 nM | IC50 (HeLa nuclear HDACs [2]): 100 nM

CC(=O)O[C@H]1C(=O)[C@@]2(C)[C@H]([C@H](OC(=O)c3ccccc3)[C@]3(O)C[C@H](OC(=O)[C@H](O)[C@@H](NC(=O)c4ccccc4)c4ccccc4)C(C)=C1C3(C)C)[C@]1(OC(C)=O)CO[C@@H]1C[C@@H]2O [Paclitaxel, reference compound]
IC50 (SCM-1 cells): 80 ± 10 nM

O=C(NO)c1ccc(CN2C(=O)c3ccccc3S2(=O)=O)cc1-c1ccccc1 [Compound 1]
IC50 (HDAC8): 70 nM

CC/C(=C(\c1ccccc1)c1ccc(OCCN(C)C)cc1)c1ccccc1 [Tamoxifen, reference compound]
IC50 (MDA-MB-231 cells): 11400 ± 900 nM
